Measured values taken from patent US20190038588A1, “NOVEL CLASS OF COMPOUNDS FOR THE TREATMENT OF CARDIOVASCULAR DISEASE” (STICHTING KATHOLIEKE UNIVERSITEIT, priority 2016, published 2019).
Marks after values point to notes of the source that are not given here.

How the values were obtained:
[1] = molecular target: T1, catalytic domain of the human HMG-CoA reductase (Homo sapiens, UniProt P04035); test: HMG-CoA reductase activity and inhibition assay (Sigma CS-1090 kit, NADPH oxidation at 340 nm); assay type: biochemical; conditions: for HMGR activity (% of control) Mean (SEM): compound at 300 nM, n = 3 independent experiments
T1 construct: containing the catalytic domain of the human HMG-CoA reductase; purchased Sigma-Aldrich CS-1090
T1 sequence (P04035 426-888 limits assumed): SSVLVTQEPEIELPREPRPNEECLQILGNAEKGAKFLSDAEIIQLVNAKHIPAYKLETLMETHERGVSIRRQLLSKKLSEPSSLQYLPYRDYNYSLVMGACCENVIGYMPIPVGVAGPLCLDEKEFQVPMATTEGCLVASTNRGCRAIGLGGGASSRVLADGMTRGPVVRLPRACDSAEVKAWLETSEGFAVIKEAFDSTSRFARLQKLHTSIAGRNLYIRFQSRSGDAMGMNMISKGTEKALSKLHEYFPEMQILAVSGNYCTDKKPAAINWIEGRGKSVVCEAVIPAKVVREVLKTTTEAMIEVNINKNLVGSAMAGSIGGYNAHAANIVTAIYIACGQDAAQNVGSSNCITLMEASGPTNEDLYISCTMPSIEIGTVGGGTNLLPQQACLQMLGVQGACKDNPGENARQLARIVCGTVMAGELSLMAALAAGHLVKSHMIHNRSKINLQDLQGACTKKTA
Method: The human HMG-CoA reductase activity and inhibition assays were performed using the HMG-CoA reductase Assay Kit from Sigma-Aldrich (Sigma CS-1090), containing the catalytic domain of the human HMG-CoA reductase. Enzyme activity was determined spectrophotometrically, measuring the oxidation of NADPH at 340 nm. The reaction mixture contained: 0.13 mM HMG-CoA, HMG-CoA reductase, and 50 mM Tris-HCl, (pH 7.5). After 15 min incubation at 37° C., the reaction was started with the addition of 0.13 mM NADPH, and monitored for 30 min. The enzyme activity was determined using the linear domain of the curve. These experiments were generally performed in small reaction volumes to increase throughput. Experiments in larger reaction volumes can improve reliability of obtained values, and are planned.

[2] = molecular target: T2, mitochondrial complex III (Mus musculus, UniProt P00158); test: Complex III enzyme activity in mitochondrial fractions of C2C12 cells (cytochrome c reduction at 550 nm); assay type: biochemical; conditions: compound at 100 μM; background by antimycin A (2.5 μM); n = 3 independent experiments
T2 construct: the supernatant containing the mitochondria was pelleted at 14,000 g; endogenous in cells; host or cells: C2C12 cells, mitochondrial fraction
Method: C2C12 pellets of 20·10^6 cells were snap frozen in liquid nitrogen and kept at −80° C. until use. For preparation of the mitochondrial fractions, tissues and cells were homogenized, resuspended in 10 mM Tris-HCl (pH 7.6), and snap frozen in aliquots as follows: cells were resuspended in 10 mM Tris-HCl and pottered, and sucrose was added (215 mM). The lysate was cleared of unbroken cells by centrifugation (10 minutes 600 g) after which the supernatant containing the mitochondria was pelleted at 14,000 g for 10 minutes, resuspended in 10 mM Tris-HCl (pH 7.6), and snap frozen in aliquots. Complex III enzyme activity was measured spectrophotometrically in duplicate as described before by determination of the cytochrome c reduction at 550 nm (Janssen et al., 2007; Mourmans et al., 1997; Rodenburg, 2011). For these measurements the following substrates were used: decylubiquinol (300 μM) and cytochrome c (50 μM). Background substraction was based on decylubiquinol auto-oxidation rates for FIG. 2, and on antimycin A (2.5 μM) for table 4. The enzyme activity was determined using the linear domain of the curve. These experiments were generally performed in small reaction volumes to increase throughput. Experiments in larger reaction volumes can improve reliability of obtained values, and are planned.

Row | SMILES | HMGR activity (% of control) Mean (SEM) [1] | complex III activity (% of control) Mean (SEM) [2] | IC50 ([1]; dose-response curve of FIG. 2C, 95%-CI printed in the row below) [µM]
1 | CC(C)c1c(C(=O)Nc2ccccc2)c(-c2ccccc2)c(-c2ccc(F)cc2)n1CC[C@@H](O)C[C@@H](O)CC(N)=O [atorvastatin amide, 1-((3R,5R)-7-amino-3,5-dihydroxy-7-oxoheptyl)-5-(4-fluorophenyl)-2-isopropyl-N,4-diphenyl-1H-pyrrole-3-carboxamide] | 97.37 (3.89) % of control | 54.34 (7.70) % of control | –
2 | CC(C)c1c(C(=O)Nc2ccccc2)c(-c2ccccc2)c(-c2ccc(F)cc2)n1CC[C@@H](O)C[C@@H](O)CC(=O)O [atorvastatin carboxylic acid, reference compound] | 24.39 (8.91) % of control | – | –
3 | CC(C)c1c(C(=O)Nc2ccccc2)c(-c2ccccc2)c(-c2ccc(F)cc2)n1CC[C@@H](O)C[C@@H](O)CC(=O)NO [atorvastatin hydroxamic acid, 1-((3R,5R)-3,5-dihydroxy-7-(hydroxyamino)-7-oxoheptyl)-5-(4-fluorophenyl)-2-isopropyl-N,4-diphenyl-1H-pyrrole-3-carboxamide] | 60.87 (4.50) % of control | 105.60 (13.57) % of control | –
4 | CC(C)c1c(C(=O)Nc2ccccc2)c(-c2ccccc2)c(-c2ccc(F)cc2)n1CC[C@@H]1C[C@H](O)CC(=O)O1 [atorvastatin lactone, 5-(4-fluorophenyl)-1-(2-((2R,4S)-4-hydroxy-6-oxotetrahydro-2H-pyran-2-yl)ethyl)-2-isopropyl-N,4-diphenyl-1H-pyrrole-3-carboxamide, reference compound] | – | 80.98 (3.75) % of control | –
5 | CC[C@H](C)C(=O)O[C@H]1C[C@@H](C)C=C2C=C[C@H](C)[C@H](CC[C@@H](O)C[C@@H](O)CC(N)=O)[C@H]21 [lovastatin amide, (1S,3R,7S,8S,8aR)-8-((3R,5R)-7-amino-3,5-dihydroxy-7-oxoheptyl)-3,7-dimethyl-1,2,3,7,8,8a-hexahydronaphthalen-1-yl (S)-2-methylbutanoate] | 102.30 (10.00) % of control | 104.10 (12.47) % of control | –
6 | CC[C@H](C)C(=O)O[C@H]1C[C@@H](C)C=C2C=C[C@H](C)[C@H](CC[C@@H](O)C[C@@H](O)CC(=O)O)[C@H]21 [lovastatin carboxylic acid, reference compound] | 68.18 (14.81) % of control | – | –
7 | CC[C@H](C)C(=O)O[C@H]1C[C@@H](C)C=C2C=C[C@H](C)[C@H](CC[C@@H](O)C[C@@H](O)CC(=O)NO)[C@H]21 [lovastatin hydroxamic acid, (1S,3R,7S,8S,8aR)-8-((3R,5R)-3,5-dihydroxy-7-(hydroxyamino)-7-oxoheptyl)-3,7-dimethyl-1,2,3,7,8,8a-hexahydronaphthalen-1-yl (S)-2-methylbutanoate] | 70.19 (6.79) % of control | 92.95 (10.32) % of control | –
8 | CC[C@H](C)C(=O)O[C@H]1C[C@@H](C)C=C2C=C[C@H](C)[C@H](CC[C@@H]3C[C@@H](O)CC(=O)O3)[C@H]21 [lovastatin lactone, reference compound] | – | 63.21 (3.31) % of control | –
9 | CC(C)c1nc(N(C)S(C)(=O)=O)nc(-c2ccc(F)cc2)c1/C=C/[C@@H](O)C[C@@H](O)CC(N)=O [rosuvastatin amide, (3R,5S,E)-7-(4-(4-fluorophenyl)-6-isopropyl-2-(N-methylmethylsulfonamido)-pyrimidin-5-yl)-3,5-dihydroxyhept-6-enamide] | 81.57 (10.29) % of control | 94.39 (6.41) % of control | –
10 | CC(C)c1nc(N(C)S(C)(=O)=O)nc(-c2ccc(F)cc2)c1/C=C/[C@@H](O)C[C@@H](O)CC(=O)O [rosuvastatin carboxylic acid, reference compound] | 24.09 (3.30) % of control | – | –
11 | CC(C)c1nc(N(C)S(C)(=O)=O)nc(-c2ccc(F)cc2)c1/C=C/[C@@H](O)C[C@@H](O)CC(=O)N(C)C [rosuvastatin dimethylamide, (3R,5S,E)-7-(4-(4-fluorophenyl)-6-isopropyl-2-(N-methylmethylsulfonamido)-pyrimidin-5-yl)-3,5-dihydroxy-N,N-dimethylhept-6-enamide] | 91.35 (15.32) % of control | 88.90 (7.89) % of control | –
12 | CC(C)c1nc(N(C)S(C)(=O)=O)nc(-c2ccc(F)cc2)c1/C=C/[C@@H](O)C[C@@H](O)CC(=O)NO [rosuvastatin hydroxamic acid, (3R,5S,E)-7-(4-(4-fluorophenyl)-6-isopropyl-2-(N-methylmethylsulfonamido)pyrimidin-5-yl)-N,3,5-trihydroxyhept-6-enamide] | 72.81 (9.03) % of control | 90.25 (7.98) % of control | –
13 | CNC(=O)C[C@H](O)C[C@H](O)/C=C/c1c(-c2ccc(F)cc2)nc(N(C)S(C)(=O)=O)nc1C(C)C [rosuvastatin methylamide, (3R,5S,E)-7-(4-(4-fluorophenyl)-6-isopropyl-2-(N-methylmethylsulfonamido)-pyrimidin-5-yl)-3,5-dihydroxy-N-methylhept-6-enamide] | 82.82 (12.67) % of control | 83.54 (5.98) % of control | –
14 | CC(C)c1nc(N(C)S(C)(=O)=O)nc(-c2ccc(F)cc2)c1/C=C/[C@@H](O)C[C@@H](O)CC#N [rosuvastatin nitrile, N-(5-((3S,5S,E)-6-cyano-3,5-dihydroxyhex-1-en-1-yl)-4-(4-fluorophenyl)-6-isopropylpyrimidin-2-yl)-N-methylmethanesulfonamide] | 102.50 (7.87) % of control | 95.96 (11.43) % of control | –
15 | CC(C)c1nc(N(C)S(C)(=O)=O)nc(-c2ccc(F)cc2)c1/C=C/[C@@H](O)C[C@@H](O)c1nc(=O)o[nH]1 [rosuvastatin nor-oxo-oxadiazole, N-(5-((3S,5R,E)-3,5-dihydroxy-5-(5-oxo-2,5-dihydro-1,2,4-oxadiazol-3-yl)pent-1-en-1-yl)-4-(4-fluorophenyl)-6-isopropylpyrimidin-2-yl)-N-methylmethane-sulfonamide] | 100.30 (7.82)^a % of control | 143.50 (15.67) % of control | –
16 | CC(C)c1nc(N(C)S(C)(=O)=O)nc(-c2ccc(F)cc2)c1/C=C/[C@@H](O)C[C@@H](O)c1nnn[nH]1 [rosuvastatin nor-tetrazole, N-(5-((3S,5R,E)-3,5-dihydroxy-5-(1H-tetrazol-5-yl)pent-1-en-1-yl)-4-(4-fluorophenyl)-6-isopropylpyrimidin-2-yl)-N-methylmethanesulfonamide] | 86.12 (5.73) % of control | 134.50 (17.29) % of control | –
17 | CCC(C)(C)C(=O)O[C@H]1C[C@@H](C)C=C2C=C[C@H](C)[C@H](CC[C@@H](O)C[C@@H](O)CC(=O)O)[C@H]21 [simvastatin carboxylic acid, reference compound] | 63.10 (10.70) % of control | – | 0.039
18 | CCC(C)(C)C(=O)O[C@H]1C[C@@H](C)C=C2C=C[C@H](C)[C@H](CC[C@@H]3C[C@@H](O)CC(=O)O3)[C@H]21 [simvastatin lactone, reference compound] | – | 44.55 (6.27) % of control | –
